For orientation: IC50 means the point on the concentration scale where inhibition reaches its midpoint.

Consider one compound from patent publication US6537996B2, “Modulators of p38 MAP kinase” (Iconix Pharmaceuticals, Inc., priority 2000, dated 2003).

One assay addresses T1, Recombinant p38 (Homo sapiens, UniProt Q16539).
T1 construct: purchased Biomol SE-150
The assay is described as follows: p38 assay (32P incorporation into GST-ATF-2). Format: biochemical. The following applies: recombinant p38, GST-ATF-2 substrate, 30 μM ATP; IC50 estimated from graph. The method, then: (A) Protocol: Recombinant p38 was pre-incubated for 30 minutes at room temperature in ADB (Assay Dilution Buffer: 20 mM MOPS, pH 7.2, 20 mM MgCl2, 5 mM EGTA, 1 mM DTT, 25 mM β-glycerolphosphate, 2 mM pNPP, 0.1 mM sodium orthovanadate) with recombinant GST-ATF-2 and compounds at various concentrations. The DMSO concentration was held constant at 0.1% (v/v) independent of the compound concentration. Kinase reactions were started with a mixture of ^32P-γ-ATP and ATP in ADB and were incubated for 30 minutes at 37° C. Final concentrations in kinase reactions was 0.625 ng/μl recombinant p38 (Biomol, catalog number SE-150), 62.5 ng/μl recombinant GST-ATF-2 (Upstate Biotechnology, catalog #12-367) and 30 μM ATP (Amersham, catalog #AA0068, used within two weeks of the reference date). Reactions were terminated by the addition of stopmix (final concentrations: 62.5 mM Tris pH 6.8, 10% (v/v) glycerol, 5% (v/v) B-mercaptoethanol, 20 mg/ml SDS, 1 mg/ml bromophenol blue). At this point samples were either processed directly or stored at 4° C. For analysis, samples were heated to 95° C. for 5 min and proteins were separated by SDS-PAGE using 8-16% precast gels (Novex). […] Screens were scanned using a PhosphoImager SI (Molecular Dynamics) and the amount of radioactive ^32P incorporated into GST-ATF-2 was quantified using ImageQuant (Molecular Dynamics) software. […]

The test system of a further assay is yeast. The assay is described as follows: growth rescue ARC experiments performed in yeast. As to conditions: Saccharomyces cerevisiae, read-out: in vivo IC50. It is filed as cell-based.

T1 sequence (Q16539 whole entry): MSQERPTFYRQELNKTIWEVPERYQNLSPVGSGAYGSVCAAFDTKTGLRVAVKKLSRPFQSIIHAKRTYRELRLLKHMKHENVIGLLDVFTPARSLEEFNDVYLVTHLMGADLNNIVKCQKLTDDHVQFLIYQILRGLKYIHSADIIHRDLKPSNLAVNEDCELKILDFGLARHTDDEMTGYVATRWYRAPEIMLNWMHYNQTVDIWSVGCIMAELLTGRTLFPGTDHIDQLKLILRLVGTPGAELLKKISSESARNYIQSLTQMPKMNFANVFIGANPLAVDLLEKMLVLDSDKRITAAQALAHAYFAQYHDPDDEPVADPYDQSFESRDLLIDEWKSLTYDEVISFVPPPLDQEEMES

For the compound `CC(C)/N=C(/Nc1cccc(C(F)(F)F)c1)c1ccncc1` [X, N-(3-trifluoromethylphenyl)-N′-isopropyl-4-amidinopyridine], the IC50 is 0.75 µM at Recombinant p38 and 13.2 µM with yeast.
